# Publication PMC12525602, “Identification of Selective α-Glucosidase Inhibitors via Virtual Screening with Machine Learning” (Molecules, 2025)
# Experiments:
# α-amylase = target: α-amylase; set-up: method as in ref 15 (Sun et al. 2017); conditions: ref 15 (Sun et al. 2017); cited from earlier work
# α-glucosidase [1] = target: α-glucosidase; set-up: method as in ref 15 (Sun et al. 2017); conditions: ref 15 (Sun et al. 2017); cited from earlier work
# α-glucosidase [2] = target: T1, α-glucosidase (Saccharomyces cerevisiae, UniProt P53341); assay: biochemical; assay type: biochemical
# T1 construct: purchased Sigma-Aldrich Co. (St. Louis, MI, USA)
# Method: To further investigate the inhibition kinetics of the candidate compounds, α-glucosidase activity was determined at different substrate concentrations. The Lineweaver-Burk expression method in Equation (1) was used to test the reaction of a series of compounds with the substrate pNαGP, and the values of maximum velocity (Vmax) and Michaelis-Menten constant (Km) were calculated.(1) 1/v=Km/Vmax1/[S]+1/Vmax where Vmax and Km are the maximum velocity of the enzyme and the Michaelis-Menten constant in the absence of inhibitor, respectively. [S] is the concentration of substrate and inhibitor.(2) Slope=Km/Vmax+Km/Vmax·KiI where v is the initial reaction rate, Vmax is the maximum initial reaction rate, [I] is the concentration of […], and Km is the Michaelis-Menten constant.
# α-glucosidase [3] = target: T1, α-glucosidase; assay: Fluorescence quenching experiment (Stern-Volmer); assay type: binding; conditions: for Kq (bimolecular quenching constant): given as number×10 with exponent 12
# Method: The fluorescence quenching experiment was modified somewhat based on previous studies. Fluorescence was determined by titrating α-glucosidase (1.0 mL, 2 U/mL) with different concentrations of inhibited solutions (1.0 mL, 0–200 mM) and left to equilibrate for 5 min. […] Fluorescence burst analysis was performed based on the Stern-Volmer (3) equation.(3) F0/F=1+Kqτ0Q=1+KsvQ
# F and F0 are the fluorescence intensities with and without inhibitor, respectively, Ksv is the Stern-Volmer bursting constant, Kq is the bimolecular bursting constant, and [Q] is the concentration of inhibitor.
# When the bursting mode conforms to static bursting, the binding constant Ka and the number of binding sites for each enzyme can be calculated from Equation (4).(4) logF0−F/F=logKa+nlogQ
# Ka is the binding constant and n is the number of binding sites.
# The thermodynamic parameters ∆H, ∆S, and ∆G denote the change in heat, entropy, and free energy, respectively.
# α-glucosidase [4] = target: T1, α-glucosidase; assay: Synchronous fluorescence spectroscopy (RSQF); assay type: binding
# Method: Changes in the microenvironment of tyrosine (Tyr) and tryptophan (Trp) residue fluorophores were detected simultaneously. The excitation and emission wavelength intervals were set to 15 nm and 60 nm, respectively, and the synchronized fluorescence spectra from 260 to 320 nm were determined. The synchronized fluorescence burst ratio (RSFQ) was calculated as follows:(7) RSQF=1−F/F0
# C57BL/6J mice = assay: In vivo starch digestion inhibition experiment (postprandial blood glucose); conditions: normal mice, 10 mg/kg by gavage, 2 g/kg starch, 0-120 min; p < 0.001 versus controls
# Source text: After the in vitro validation, in order to further characterize the effect of the inhibitor on postprandial glycemic control, we performed in vivo characterization by gavage in mice. Eight-week-old male C57BL/6J mice (purchased from Beijing Huafukang Laboratory Animals, Beijing, China) were used for the experiments. The animal experimental procedures were approved by the Ethics Committee on Laboratory Animal Management and Welfare of Beijing Huafuqian Times Technology Co. Ltd. (Ethical Review Approval No. HYSD2023-04), and local and national ethical guidelines were strictly observed. All mice were placed in a controlled environment with a temperature of 25 °C, relative humidity of 60%, and a light/dark cycle of 12/12 h. Following overnight fasting, gastric intubation was performed on mice in the control group, acarbose group, […] group, […] group, […] group, and […] group. The control group received saline infusion to eliminate confounding factors during administration. […] The remaining groups each received a corresponding concentration (10 mg/kg) of the test compound dissolved in saline solution to evaluate inhibitor efficacy. 2 g/kg of starch was given after 5 min, and the […] at 0 min, 10 min, 20 min, 30 min, 40 min, 60 min, 90 min and 120 min.
# T1 sequence (P53341 whole entry): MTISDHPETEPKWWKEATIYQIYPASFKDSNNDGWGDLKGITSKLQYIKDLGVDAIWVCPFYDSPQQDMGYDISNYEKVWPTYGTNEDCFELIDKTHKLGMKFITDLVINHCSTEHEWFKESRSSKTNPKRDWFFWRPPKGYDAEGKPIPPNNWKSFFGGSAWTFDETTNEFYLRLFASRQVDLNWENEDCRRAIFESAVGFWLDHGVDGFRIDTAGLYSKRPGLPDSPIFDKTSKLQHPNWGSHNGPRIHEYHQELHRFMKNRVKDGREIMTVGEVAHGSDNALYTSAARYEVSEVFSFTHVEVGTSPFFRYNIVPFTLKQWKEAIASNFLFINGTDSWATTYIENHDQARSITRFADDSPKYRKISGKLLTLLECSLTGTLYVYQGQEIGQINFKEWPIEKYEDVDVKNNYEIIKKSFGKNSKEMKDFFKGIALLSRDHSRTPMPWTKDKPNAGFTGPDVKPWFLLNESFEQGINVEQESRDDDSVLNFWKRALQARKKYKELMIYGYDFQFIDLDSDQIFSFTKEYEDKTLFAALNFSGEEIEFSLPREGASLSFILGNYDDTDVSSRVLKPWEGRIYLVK
smiles,measurement,setting,value
O=C(/C=C/c1ccc(O)cc1)c1c(O)cc(O)cc1O [chalconaringenin],IC50,α-amylase,> 100 µM
same,IC50,α-glucosidase [1],20 µM
"C[C@H]1O[C@H](O[C@H]2[C@H](O)[C@@H](O)[C@@H](O[C@H]3[C@H](O)[C@@H](O)C(O)O[C@@H]3CO)O[C@@H]2CO)[C@H](O)[C@@H](O)[C@@H]1N[C@H]1C=C(CO)[C@@H](O)[C@H](O)[C@H]1O (stereo partly shown) [Acarbose, acarbose, reference compound]",Type of inhibition,α-glucosidase [2],Mixed
same,Vmax,α-glucosidase [2]; [I] […] μM,5.92±0.06 ×10-1µM/min
same,Vmax,α-glucosidase [2]; [I] 500 μM,6.18±0.04 ×10-1µM/min
same,Vmax,α-glucosidase [2]; [I] 1000 μM,5.90±0.03 ×10-1µM/min
same,Vmax,α-glucosidase [2]; [I] 2000 μM,2.42±0.06 ×10-1µM/min
same,Vmax,α-glucosidase [2]; [I] […],5.96±0.06 ×10-1µM/min
same,Ksv (quenching constant),α-glucosidase [3]; T 300.15 K,0.01 ±0.01 104 /M
same,n (number of binding sites),α-glucosidase [3]; T 300.15 K,1.04
same,Kq (bimolecular quenching constant),α-glucosidase [3]; T 300.15 K,0.01 ×10^12 (M·S)-1
same,Ksv (quenching constant),α-glucosidase [3]; T 305.15 K,0.02 ±0.01 104 /M
same,n (number of binding sites),α-glucosidase [3]; T 305.15 K,0.98
same,Kq (bimolecular quenching constant),α-glucosidase [3]; T 305.15 K,0.02 ×10^12 (M·S)-1
same,"RSQF values, Trp (Δλ = 60 nm) versus Tyr (Δλ = 15 nm)",α-glucosidase [4],very low
same,"blood glucose area under the curve (AUC), total glycemic exposure",C57BL/6J mice,significantly reduced
